{"source": "paper PMC5742831", "about": "“Inhibitors of Serine Proteases from a Microcystis sp. Bloom Material Collected from Timurim Reservoir, Israel” (Marine Drugs, 2017)", "key": {"chymotrypsin": {"target": "chymotrypsin (Bos taurus, UniProt P00766)", "assay": "Protease inhibition assay, chymotrypsin", "assay_type": "biochemical", "settings": "substrate SGGPNA; Tris buffer pH 7.5; 37 °C; 5 min pre-incubation; kinetic absorbance 405 nm over 30 min; dilutions 0.011 µM to 45.5 µM; 4-parameter logistic fit", "description": "A sigmoidal curve of the enzyme inhibition versus the concentration of the inhibitor was observed that was fit to the 4-parameters logistic model. Assays were performed in 96-well plate format.\nThe assay was performed in a Tris buffer (0.6 g TRIS HCl/100 mL H2O, pH 7.5). The enzyme and the substrate Suc-Gly-Gly-phenylalanine-p-nitroanilide (SGGPNA) were dissolved in the buffer at concentrations of 1 mg/mL. To each well were added 100 µL of buffer, 10 µL of enzyme, and 10 µL of sample. The plate was placed in the spectrophotometer at 37 °C. After 5 min, 100 µL of substrate solution was added to each well, and the plate was placed in the spectrophotometer for the kinetic measurement of the absorbance intensity over 30 min at a wavelength of 405 nm."}, "[1]": {"settings": "HPLC mobile phase 0.1% TFA/MeCN, six degradation products from TFA catalyzed hydrolysis of the glutamine and Ahp residues, confirmed by LC-MS of the crude extract"}}, "data": [{"smiles": "CC(C)C[C@H]1C(=O)N(C)[C@@H](Cc2ccc(O)cc2)C(=O)N[C@@H](C(C)C)C(=O)O[C@H](C)[C@H](NC(=O)[C@H](Cc2ccc(O)cc2)NC(=O)[C@@H](O)Cc2ccc(O)cc2)C(=O)N[C@@H](CCC(N)=O)C(=O)N[C@H]2CC[C@@H](O)N1C2=O", "note": "[Micropeptin TR1058 (1)]", "values": [{"measurement": "IC50", "setting": "chymotrypsin", "result": 6.78, "unit": "µM"}, {"measurement": "Stability under the isolation conditions", "setting": "[1]", "result": "extremely unstable"}]}]}
